In ChEMBL document CHEMBL4396974, “Synthesis and evaluation of a novel quinoline-triazole analogs for antitubercular properties via molecular hybridization approach” (Bioorg Med Chem Lett, 2019):
≈ marks a conversion by molar mass, not a printed value. Calls of active or inactive are those of the source. The rule behind the calls is not given here.

The compounds below were run on Mycobacterium tuberculosis variant bovis (assay: Antimycobacterial activity against Mycobacterium bovis assessed as 90 percent growth inhibition measured after 120 hrs by turbidometric analysis).
Format: functional

Compound | MIC90
CCCc1cn(C(c2ccccc2)c2cc3cc(Br)ccc3nc2OC)nn1 (configuration not stated) | 45.2 µM (≈ 19.8 µg/mL)
CCOC(=O)c1cn(C(c2ccccc2)c2cc3cc(Br)ccc3nc2OC)nn1 (configuration not stated) | inactive
COc1nc2ccc(Br)cc2cc1C(c1ccccc1)n1cc(CCCO)nn1 (configuration not stated) | inactive
CCCCc1cn(C(c2ccccc2)c2cc3cc(Br)ccc3nc2OC)nn1 (configuration not stated) | 50.2 µM (≈ 22.7 µg/mL)
CCCCCCc1cn(C(c2ccccc2)c2cc3cc(Br)ccc3nc2OC)nn1 (configuration not stated) | 44.4 µM (≈ 21.3 µg/mL)
CCCCCCCCc1cn(C(c2ccccc2)c2cc3cc(Br)ccc3nc2OC)nn1 (configuration not stated) | 34.9 µM (≈ 17.7 µg/mL)
COc1nc2ccc(Br)cc2cc1C(c1ccccc1)n1cc(-c2ccc(OC(F)(F)F)cc2)nn1 (configuration not stated) | 41 µM (≈ 22.8 µg/mL)
COc1nc2ccc(Br)cc2cc1C(c1ccccc1)n1cc(CCCCCO)nn1 (configuration not stated) | 59.6 µM (≈ 28.7 µg/mL)
COc1nc2ccc(Br)cc2cc1C(c1ccccc1)n1cc(-c2ccccc2F)nn1 (configuration not stated) | inactive
COc1nc2ccc(Br)cc2cc1C(c1ccccc1)n1cc(CO)nn1 (configuration not stated) | 131 µM (≈ 55.7 µg/mL)
COc1nc2ccc(Br)cc2cc1C(c1ccccc1)n1cc(-c2ccccc2)nn1 (configuration not stated) | 161 µM (≈ 75.7 µg/mL)
CCCCCc1cn(C(c2ccccc2)c2cc3cc(Br)ccc3nc2OC)nn1 (configuration not stated) | 80.9 µM (≈ 37.7 µg/mL)
CCCCCCCc1cn(C(c2ccccc2)c2cc3cc(Br)ccc3nc2OC)nn1 (configuration not stated) | 71.9 µM (≈ 35.5 µg/mL)
COc1nc2ccc(Br)cc2cc1C(c1ccccc1)n1cc(-c2ccc(F)cc2)nn1 (configuration not stated) | inactive
COc1nc2ccc(Br)cc2cc1C(c1ccccc1)n1cc(-c2cccc(F)c2)nn1 (configuration not stated) | 31.4 µM (≈ 15.3 µg/mL)
NNC(=O)c1ccncc1 [ISONIAZID] | 12.5 µM (≈ 1.72 µg/mL)
COc1nc2ccc(Br)cc2cc1C(c1ccccc1)n1cc(CCO)nn1 (configuration not stated) | 133 µM (≈ 58.3 µg/mL)
CO[C@H]1/C=C/O[C@@]2(C)Oc3c(C)c(O)c4c(O)c(c(/C=N/N5CCN(C)CC5)c(O)c4c3C2=O)NC(=O)/C(C)=C\C=C\[C@H](C)[C@H](O)[C@@H](C)[C@@H](O)[C@@H](C)[C@H](OC(C)=O)[C@@H]1C [RIFAMPIN] | 2.2 µM (≈ 1.81 µg/mL)
COc1nc2ccc(Br)cc2cc1C(c1ccccc1)n1cc(-c2ccccc2C(F)(F)F)nn1 (configuration not stated) | 174 µM (≈ 93.8 µg/mL)
COc1nc2ccc(Br)cc2cc1C(c1ccccc1)n1cc(-c2ccc(Br)cc2)nn1 (configuration not stated) | 49 µM (≈ 27 µg/mL)
COc1nc2ccc(Br)cc2cc1[C@@H](c1ccccc1)[C@@](O)(CCN(C)C)c1cccc2ccccc12 [BEDAQUILINE] | 0.15 µM (≈ 0.0833 µg/mL)
COc1nc2ccc(Br)cc2cc1C(c1ccccc1)n1cc(C2CC2)nn1 (configuration not stated) | inactive
